Measured values published in US11053234B2 (GlaxoSmithKline Intellectual Property Development Limited, priority 2016, dated 2021).

Target: T1, haematopoietic prostaglandin D synthase (H-PGDS) (Homo sapiens, UniProt O60760)
T1 construct: Full length human H-PGDS cDNA (Invitrogen Ultimate ORF 10H13026) was amplified by PCR; 6-His (N); TEV protease cleavage site (N); made in house; host or cells: E. coli BL21 (DE3*), vector pET22b+
Experiment: H-PGDS RapidFire high throughput mass spectrometry assay (conversion of PGH2 to PGD2)
Assay type: biochemical
Conditions: 10 nM H-PGDS, PGH2 formed in situ by COX-2 from arachidonic acid; read-out: Potency Range (mean pIC50) (converted)
Outline: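 PGH2 substrate generated in situ by COX-2 (full-length human, FLAG-tagged, Sf9-expressed) from arachidonic acid at ˜10 μM, then converted by full-length human His-tagged H-PGDS (E. coli-expressed). RapidFire SPE–triple quadrupole MS measured PGD2 against PGF2α as substrate surrogate to give percent conversion.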

T1 sequence (O60760 whole entry): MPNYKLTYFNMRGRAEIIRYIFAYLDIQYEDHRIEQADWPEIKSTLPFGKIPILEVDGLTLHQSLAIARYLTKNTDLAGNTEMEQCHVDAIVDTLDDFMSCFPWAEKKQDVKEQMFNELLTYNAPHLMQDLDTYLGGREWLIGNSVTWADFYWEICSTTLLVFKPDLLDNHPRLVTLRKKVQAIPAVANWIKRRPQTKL

SMILES	IC50 [nM]
CC(C)(O)CO[C@H]1CC[C@H](NC(=O)[C@H]2C[C@H](Oc3cc(F)ccc3OC(F)F)C2)CC1 [Example 33, (trans)-3-(2-(Difluoromethoxy)-5-fluorophenoxy)-N-((trans)-4-(2-hydroxy-2-methylpropoxy)cyclohexyl)cyclobutanecarboxamide]	10 to 79.4
CC(C)(O)[C@H]1CC[C@H](NC(=O)[C@H]2C[C@H](Oc3cc(F)ccc3OC(F)F)C2)CC1 [Example 34, (trans)-3-(2-(Difluoromethoxy)-5-fluorophenoxy)-N-((trans)-4-(2-hydroxypropan-2-yl)cyclohexyl)cyclobutanecarboxamide]	10 to 79.4
CC(=O)c1csc(NC(=O)[C@H]2C[C@H](Oc3cc(F)ccc3OC(F)F)C2)n1 [Example 35, (trans)-N-(4-Acetylthiazol-2-yl)-3-(2-(difluoromethoxy)-5-fluorophenoxy)cyclobutanecarboxamide]	< 10
NC(=O)c1ccc(N2CC(NC(=O)[C@H]3C[C@H](Oc4cccc5scnc45)C3)C2)nc1 [Example 36, 6-(3-((trans)-3-(Benzo[d]thiazol-4-yloxy)cyclobutanecarboxamido)azetidin-1-yl)nicotinamide]	10 to 79.4
N#Cc1ccc(N2CC(NC(=O)[C@H]3C[C@H](Oc4cccc5scnc45)C3)C2)nc1 [Example 37, (trans)-3-(Benzo[d]thiazol-4-yloxy)-N-(1-(5-cyanopyridin-2-yl)azetidin-3-yl)cyclobutanecarboxamide]	10 to 79.4
CNC(=O)c1ccc(N2CC(NC(=O)[C@H]3C[C@H](Oc4cccc5scnc45)C3)C2)nc1 [Example 38, 6-(3-((trans)-3-(Benzo[d]thiazol-4-yloxy)cyclobutanecarboxamido)azetidin-1-yl)-N-methylnicotinamide]	10 to 79.4
Cc1cnc(N2CC(NC(=O)[C@H]3C[C@H](Oc4cccc5scnc45)C3)C2)nc1 [Example 39, (trans)-3-(Benzo[d]thiazol-4-yloxy)-N-(1-(5-methylpyrimidin-2-yl)azetidin-3-yl)cyclobutanecarboxamide]	10 to 79.4
O=C(NC1CCN(c2ncc(F)cn2)CC1)[C@H]1C[C@H](Oc2cccc3scnc23)C1 [Example 41, (trans)-3-(Benzo[d]thiazol-4-yloxy)-N-(1-(5-fluoropyrimidin-2-yl)piperidin-4-yl)cyclobutanecarboxamide]	10 to 79.4
O=C(NC1CN(c2ccc(F)cn2)C1)[C@H]1C[C@H](Oc2cccc3scnc23)C1 [Example 44, (trans)-3-(Benzo[d]thiazol-4-yloxy)-N-(1-(5-fluoropyridin-2-yl)azetidin-3-yl)cyclobutanecarboxamide]	10 to 79.4
COC(=O)c1coc(N2CC(NC(=O)[C@H]3C[C@H](Oc4cccc5scnc45)C3)C2)n1 [Example 45, Methyl 2-(3-((trans)-3-(benzo[d]thiazol-4-yloxy)cyclobutanecarboxamido)azetidin-1-yl)oxazole-4-carboxylate]	100 to 1000
CC(=O)c1coc(N2CC(NC(=O)[C@H]3C[C@H](Oc4cccc5scnc45)C3)C2)n1 [Example 47, (trans)-N-(1-(4-Acetyloxazol-2-yl)azetidin-3-yl)-3-(benzo[d]thiazol-4-yloxy)cyclobutanecarboxamide]	100 to 1000
CCOC(=O)c1cnc(N2CC(NC(=O)[C@H]3C[C@H](Oc4cccc5scnc45)C3)C2)o1 [Example 48, Ethyl 2-(3-((trans)-3-(benzo[d]thiazol-4-yloxy)cyclobutanecarboxamido)azetidin-1-yl)oxazole-5-carboxylate]	100 to 1000
CC(C)(O)c1cnc(N2CC(NC(=O)[C@H]3C[C@H](Oc4cccc5scnc45)C3)C2)o1 [Example 49, (trans)-3-(Benzo[d]thiazol-4-yloxy)-N-(1-(5-(2-hydroxypropan-2-yl)oxazol-2-yl)azetidin-3-yl)cyclobutanecarboxamide]	10 to 79.4
Cc1nccc(N2CC(NC(=O)[C@H]3C[C@H](Oc4cccc5scnc45)C3)C2)n1 [Example 50, (trans)-3-(Benzo[d]thiazol-4-yloxy)-N-(1-(2-methylpyrimidin-4-yl)azetidin-3-yl)cyclobutanecarboxamide]	10 to 79.4
N#Cc1ccnc(N2CC(NC(=O)N3CC(Oc4cccc5scnc45)C3)C2)c1 [Example 52, 3-(Benzo[d]thiazol-4-yloxy)-N-(1-(4-cyanopyridin-2-yl)azetidin-3-yl)azetidine-1-carboxamide]	10 to 79.4
O=C(N[C@H]1CC[C@H](N[C@@H](CO)C(F)(F)F)CC1)N1CC(Oc2cccc3scnc23)C1 [Example 53, 3-(Benzo[d]thiazol-4-yloxy)-N-((trans)-4-(((S)-1,1,1-trifluoro-3-hydroxypropan-2-yl)amino)cyclohexyl)azetidine-1-carboxamide]	10 to 79.4
O=C(NC1CN(c2ccccn2)C1)N1CC(Oc2cccc3scnc23)C1 [Example 54, 3-(Benzo[d]thiazol-4-yloxy)-N-(1-(pyridin-2-yl)azetidin-3-yl)azetidine-1-carboxamide]	10 to 79.4
CC(C)(O)c1csc(NC(=O)[C@H]2C[C@H](Oc3cccc4scnc34)C2)n1 [Example 55, (trans)-3-(Benzo[d]thiazol-4-yloxy)-N-(4-(2-hydroxypropan-2-yl)thiazol-2-yl)cyclobutanecarboxamide]	10 to 79.4

SMILES	IC50 [nM]
CC(C)(O)c1csc(NC(=O)N2CC(Oc3cccc4scnc34)C2)n1 [Example 56, 3-(Benzo[d]thiazol-4-yloxy)-N-(4-(2-hydroxypropan-2-yl)thiazol-2-yl)azetidine-1-carboxamide]	100 to 1000
O=C(N[C@H]1CC[C@H](N2CC(F)(F)C2)CC1)N1CC(Oc2cccc3scnc23)C1 [Example 57, 3-(Benzo[d]thiazol-4-yloxy)-N-((trans)-4-(3,3-difluoroazetidin-1-yl)cyclohexyl)azetidine-1-carboxamide]	100 to 1000
COCCO[C@H]1CC[C@H](NC(=O)[C@H]2C[C@H](Oc3cccc4scnc34)C2)CC1 [Example 58, (trans)-3-(Benzo[d]thiazol-4-yloxy)-N-((trans)-4-(2-methoxyethoxy)cyclohexyl)cyclobutanecarboxamide]	100 to 1000
COCCO[C@H]1CC[C@H](NC(=O)N2CC(Oc3cccc4scnc34)C2)CC1 [Example 59, 3-(Benzo[d]thiazol-4-yloxy)-N-((trans)-4-(2-methoxyethoxy)cyclohexyl)azetidine-1-carboxamide]	10 to 79.4
O=C(NC1CN(c2ccnc(Cl)n2)C1)N1CC(Oc2cccc3scnc23)C1 [Example 60, 3-(Benzo[d]thiazol-4-yloxy)-N-(1-(2-chloropyrimidin-4-yl)azetidin-3-yl)azetidine-1-carboxamide]	10 to 79.4
O=C(NC1CN(c2ncc(F)cn2)C1)N1CC(Oc2cccc3scnc23)C1 [Example 61, 3-(Benzo[d]thiazol-4-yloxy)-N-(1-(5-fluoropyrimidin-2-yl)azetidin-3-yl)azetidine-1-carboxamide]	10 to 79.4
CC(=O)c1csc(NC(=O)N2CC(Oc3cccc4scnc34)C2)n1 [Example 62, N-(4-Acetylthiazol-2-yl)-3-(benzo[d]thiazol-4-yloxy)azetidine-1-carboxamide]	10 to 79.4
O=C(Nc1ccncc1)N1CC(Oc2cccc3scnc23)C1 [Example 63, 3-(Benzo[d]thiazol-4-yloxy)-N-(pyridin-4-yl)azetidine-1-carboxamide]	100 to 1000
O=C(NC1CCCCC1)N1CC(Oc2cccc3scnc23)C1 [Example 64, 3-(Benzo[d]thiazol-4-yloxy)-N-cyclohexylazetidine-1-carboxamide]	100 to 1000
CN/C(=N\C#N)N1CC(NC(=O)[C@H]2C[C@H](Oc3cccc4scnc34)C2)C1 [Example 65, (trans)-3-(Benzo[d]thiazol-4-yloxy)-N-(1-((E)-N′-cyano-N-methylcarbamimidoyl)azetidin-3-yl)cyclobutanecarboxamide]	100 to 1000
CC(C)(C)OC(=O)N[C@H]1C[C@H](NC(=O)[C@H]2C[C@H](Oc3cccc4scnc34)C2)C1 [Example 66, tert-butyl ((trans)-3-((trans)-3-(benzo[d]thiazol-4-yloxy)cyclobutanecarboxamido)cyclobutyl)carbamate]	100 to 1000
O=C(NC1CCCCC1)N[C@H]1C[C@H](NC(=O)[C@H]2C[C@H](Oc3cccc4scnc34)C2)C1 [Example 67, (trans)-3-(Benzo[d]thiazol-4-yloxy)-N-((trans)-3-(3-cyclohexylureido)cyclobutyl)cyclobutanecarboxamide]	100 to 1000
CC(=O)c1csc(NC(=O)[C@H]2C[C@H](Oc3cccc4scnc34)C2)n1 [Example 68, (trans)-N-(4-Acetylthiazol-2-yl)-3-(benzo[d]thiazol-4-yloxy)cyclobutanecarboxamide]	10 to 79.4
O=C(NC1CN(c2ccnc(Cl)n2)C1)[C@H]1C[C@H](Oc2cccc3scnc23)C1 [Example 69, (trans)-3-(Benzo[d]thiazol-4-yloxy)-N-(1-(2-chloropyrimidin-4-yl)azetidin-3-yl)cyclobutanecarboxamide]	10 to 79.4
CC(C)Nc1nccc(N2CC(NC(=O)[C@H]3C[C@H](Oc4cccc5scnc45)C3)C2)n1 [Example 70, (trans)-3-(Benzo[d]thiazol-4-yloxy)-N-(1-(2-(isopropylamino)pyrimidin-4-yl)azetidin-3-yl)cyclobutanecarboxamide]	100 to 1000
COCCNc1nccc(N2CC(NC(=O)[C@H]3C[C@H](Oc4cccc5scnc45)C3)C2)n1 [Example 72, (trans)-3-(Benzo[d]thiazol-4-yloxy)-N-(1-(2-((2-methoxyethyl)amino)pyrimidin-4-yl)azetidin-3-yl)cyclobutanecarboxamide]	100 to 1000
O=C(N[C@H]1C[C@H](Nc2ncccn2)C1)[C@H]1C[C@H](Oc2cccc3scnc23)C1 [Example 73, (trans)-3-(Benzo[d]thiazol-4-yloxy)-N-((trans)-3-(pyrimidin-2-ylamino)cyclobutyl)cyclobutanecarboxamide]	100 to 1000
